Values after ≈ are worked out from the molar mass of the structure shown. Read-outs that look alike come from different tables or passages of the source. *1 amine or outer side, *2 acyl side, *3 side chain or, on linkers, in order; H or OH if unused. Where a SMILES comes first, the peptide text is derived from it. Bridges are numbered along the chain shown (N, C = ends). [ ]: non-standard residue; d: D form. The star is where a group is joined. Phe(3,5-F2) = N[C@@H](Cc1cc(F)cc(F)c1)C(=O)O; NH(4-OCF3-phenyl) = FC(F)(F)Oc1ccc(N*)cc1; Morpholine(3S-CO) = O=C(O)[C@@H]1COCCN1; Pro(4S-Me) = C[C@@H]1CN[C@H](C(=O)O)C1; NH(4-Cl-2-F-phenyl) = Fc1cc(Cl)ccc1N*; Pro(4R-Me) = C[C@H]1CN[C@H](C(=O)O)C1; NH(3,4-Me2-phenyl) = Cc1ccc(N*)cc1C; NMeaThr = CN[C@H](C(=O)O)[C@H](C)O; Hyp = O=C(O)[C@@H]1C[C@@H](O)CN1; NMeT = CN[C@H](C(=O)O)[C@@H](C)O; NH(4-Me-phenyl) = Cc1ccc(N*)cc1; aThr = C[C@H](O)[C@H](N)C(=O)O; Pip = O=C(O)[C@@H]1CCCCN1; CO = O=C([*:1])[*:2]
What was measured:
Sa-ClpP = target: T1, Sa-ClpP (Staphylococcus aureus, UniProt Q2G036); experiment: ADEP displacement fluorescence polarization assay (FP probe ADEP 2591); assay type: binding
T1 construct: made in house; host or cells: E. coli BL21(DE3)
T1 sequence (Q2G036 1-195): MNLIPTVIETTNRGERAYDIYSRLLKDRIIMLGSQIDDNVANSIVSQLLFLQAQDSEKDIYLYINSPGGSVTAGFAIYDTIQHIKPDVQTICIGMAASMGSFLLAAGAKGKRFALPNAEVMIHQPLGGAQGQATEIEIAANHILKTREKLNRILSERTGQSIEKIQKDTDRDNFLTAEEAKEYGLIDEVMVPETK
Method in brief: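 Master mix of 15 μM S. aureus ClpP with 50 nM TAMRA-labelled ADEP 2591 probe in Tris-HCl pH 8.0, 2% DMSO, was pre-equilibrated 1 h, then incubated with compound 120 min at room temperature. Polarization (ex 530, em 579 nm) was normalized to 200 μM ADEP 2378 and DMSO controls; four-parameter fits, triplicate.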

[1] = test system: Streptococcus pyogenes, ATCC 700294; experiment: Minimal inhibitory concentration assay (microbroth dilution); assay type: cell-based
Method in brief: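 CLSI broth microdilution: two-fold serial compound dilutions in appropriate broth, inoculated and incubated aerobically overnight at 37° C. MIC read visually as lowest concentration preventing bacterial growth.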

[2] = test system: Staphylococcus aureus, ATCC 29213; experiment: as above; assay type: cell-based; conditions: ATCC29213, read-out: Minimal Inhibitory Concentrations S. aureus ATCC 29213
Method in brief: (§1)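 CLSI broth microdilution: two-fold compound dilutions from 200 μM final, ~10^5 cfu/mL inoculum, aerobic overnight incubation at 37 °C. MIC read visually as lowest concentration preventing growth; S. aureus USA 300 compared with its ClpP-inactivated counterpart to check ClpP dependence.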

[3] = test system: Staphylococcus aureus, NRS70; experiment: as above; assay type: cell-based
Method in brief: as §1

[4] = test system: Bacillus subtilis, ATCC 23857; experiment: as above; assay type: cell-based
Method in brief: as §1

[5] = Streptococcus pyogenes, ATCC700294, read-out: Minimal Inhibitory Concentrations S. pyogenes ATCC 700294
[6] = Staphylococcus aureus, NRS70, read-out: Minimal Inhibitory Concentrations S. aureus NRS70
[7] = Bacillus subtilis, ATCC23857, read-out: Minimal Inhibitory Concentrations B. subtilis ATCC 23857
[8] = Streptococcus pyogenes, ATCC700294; read-out: Minimal Inhibitory Concentrations S. pyogenes ATCC 700294
[9] = Staphylococcus aureus, NRS70; read-out: Minimal Inhibitory Concentrations S. aureus NRS70
[10] = Bacillus subtilis, ATCC23857; read-out: Minimal Inhibitory Concentrations B. subtilis ATCC 23857
[11] = displacement of FP probe ADEP 2591 from Sa-ClpP, read-out: ADEP Displacement IC50

SMILES	IC50 (Sa-ClpP)	MIC [1, 5]	MIC [2]	MIC [3, 6]	MIC [4, 7]	MIC [1, 8]	MIC [3, 9]	MIC [4, 10]	IC50 (Sa-ClpP; [11])
Cc1ccc(NC(=O)N[C@@H](Cc2cc(F)cc(F)c2)C(=O)N[C@@H]2C(=O)N3CCC[C@H]3C(=O)N(C)[C@@H]([C@@H](C)O)C(=O)N[C@@H](C)C(=O)N3C[C@H](C)C[C@H]3C(=O)O[C@H]2C)cc1 [Compound 38, (S)-3-(3,5-difluorophenyl)-N-((2R,6S,9S,11aS,17S,18S,20aS)-9-((R)-1-hydroxyethyl)-2,6,10,18-tetramethyl-5,8,11,16,20-pentaoxohexadecahydro-1H,5H,16H-dipyrrolo[2,1-c:2′,1′-l][1]oxa[4,7,10,13]tetraazacyclohexadecin-17-yl)-2-(3-(p-tolyl)ureido)propanamide] ({NH(4-Me-phenyl)-CO}-[Phe(3,5-F2)][aThr]P[NMeT]A[Pro(4R-Me)]; ester 2-C)	6.52 ± 0.3 µM	0.1 µM (≈ 0.0812 µg/mL)	0.05 µM (≈ 0.0406 µg/mL)	0.05 µM (≈ 0.0406 µg/mL)	0.05 µM (≈ 0.0406 µg/mL)	–	–	–	–
Cc1ccc(NC(=O)N[C@@H](Cc2cc(F)cc(F)c2)C(=O)N[C@H]2COC(=O)[C@@H]3C[C@@H](C)CN3C(=O)[C@H](C)NC(=O)[C@@H]3CCCCN3C(=O)[C@@H]3CCCN3C2=O)cc1C [Compound 207, (S)-3-(3,5-difluorophenyl)-N-((2R,6S,8aS,14aS,20S,23aS)-2,6-dimethyl-5,8,14,19,23-pentaoxooctadecahydro-1H,5H,14H,19H-pyrido[2,1-i]dipyrrolo[2,1-c:2′,1′-l][1]oxa[4,7,10,13]tetraazacyclohexadecin-20-yl)-2-(3-(3,4-dimethylphenyl)ureido)propanamide]	5.2 ± 0.3 µM	< 0.2 µM	< 0.2 µM	< 0.2 µM	< 0.2 µM	–	–	–	–
Cc1ccc(NC(=O)N[C@@H](Cc2cc(F)cc(F)c2)C(=O)N[C@@H]2C(=O)N3CCC[C@H]3C(=O)N3CCOC[C@H]3C(=O)N[C@@H](C)C(=O)N3C[C@H](C)C[C@H]3C(=O)O[C@H]2C)cc1 [Compound 210, (S)-3-(3,5-difluorophenyl)-2-(3-(p-tolyl)ureido)-N-((6aS,12S,13S,15aS,17R,21S,23aS)-13,17,21-trimethyl-6,11,15,20,23-pentaoxooctadecahydro-6H,11H,15H-[1,4]oxazino[3,4-i]dipyrrolo[2,1-c:2′,1′-l][1]oxa[4,7,10,13]tetraazacyclohexadecin-12-yl)propanamide] ({NH(4-Me-phenyl)-CO}-[Phe(3,5-F2)][aThr]P[Morpholine(3S-CO)]A[Pro(4R-Me)]; ester 2-C)	7.1 ± 0.2 µM	0.02 µM (≈ 0.0162 µg/mL)	0.003 µM (≈ 0.00243 µg/mL)	0.0002 µM (≈ 0.000162 µg/mL)	0.02 µM (≈ 0.0162 µg/mL)	–	–	–	–
C[C@@H]1C[C@H]2C(=O)OC[C@H](NC(=O)[C@H](Cc3ccccc3)NC(=O)Nc3ccc4c(c3)OCO4)C(=O)N3CCC[C@H]3C(=O)N3CCCC[C@H]3C(=O)N[C@@H](C)C(=O)N2C1 [Compound 194, (S)-2-(3-(benzo[d][1,3]dioxol-5-yl)ureido)-N-((2R,6S,8aS,14aS,20S,23aS)-2,6-dimethyl-5,8,14,19,23-pentaoxooctadecahydro-1H,5H,14H,19H-pyrido[2,1-i]dipyrrolo[2,1-c:2′,1′-l][1]oxa[4,7,10,13]tetraazacyclohexadecin-20-yl)-3-phenylpropanamide]	8 ± 0.6 µM	–	1.56 µM (≈ 1.23 µg/mL)	–	–	< 0.2 µM	0.39 µM (≈ 0.307 µg/mL)	0.39 µM (≈ 0.307 µg/mL)	–
Cc1ccc(NC(=O)N[C@@H](Cc2cc(F)cc(F)c2)C(=O)N[C@@H]2C(=O)N3CCC[C@H]3C(=O)N(C)[C@@H]([C@H](C)O)C(=O)N[C@@H](C)C(=O)N3C[C@@H](C)C[C@H]3C(=O)O[C@H]2C)cc1 [Compound 202, (S)-3-(3,5-difluorophenyl)-N-((2S,6S,9S,11aS,17S,18S,20aS)-9-((S)-1-hydroxyethyl)-2,6,10,18-tetramethyl-5,8,11,16,20-pentaoxohexadecahydro-1H,5H,16H-dipyrrolo[2,1-c:2′,1′-L][1]oxa[4,7,10,13]tetraazacyclohexadecin-17-yl)-2-(3-(p-tolyl)ureido)propanamide] ({NH(4-Me-phenyl)-CO}-[Phe(3,5-F2)][aThr]P[NMeaThr]A[Pro(4S-Me)]; ester 2-C)	–	0.391 µM (≈ 0.317 µg/mL)	0.195 µM (≈ 0.158 µg/mL)	0.098 µM (≈ 0.0796 µg/mL)	0.195 µM (≈ 0.158 µg/mL)	–	–	–	6.6 ± 0.4 µM
Cc1ccc(NC(=O)N[C@@H](Cc2cc(F)cc(F)c2)C(=O)N[C@@H]2C(=O)N3C[C@H](O)C[C@H]3C(=O)N3CCOC[C@H]3C(=O)N[C@@H](C)C(=O)N3C[C@H](C)C[C@H]3C(=O)O[C@H]2C)cc1C [Compound 215, (S)-3-(3,5-difluorophenyl)-2-(3-(3,4-dimethylphenyl)ureido)-N-((6aS,8R,12S,13S,15aS,17R,21S,23aS)-8-hydroxy-13,17,21-trimethyl-6,11,15,20,23-pentaoxooctadecahydro-6H,11H,15H-[1,4]oxazino[3,4-i]dipyrrolo[2,1-c:2′,1′-l][1]oxa[4,7,10,13]tetraazacyclohexadecin-12-yl)propanamide] ({NH(3,4-Me2-phenyl)-CO}-[Phe(3,5-F2)][aThr][Hyp][Morpholine(3S-CO)]A[Pro(4R-Me)]; ester 2-C)	6.8 ± 0.3 µM	< 0.2 µM	0.4 µM (≈ 0.336 µg/mL)	0.8 µM (≈ 0.672 µg/mL)	3.1 µM (≈ 2.6 µg/mL)	–	–	–	–
C[C@@H]1C[C@H]2C(=O)O[C@@H](C)[C@H](NC(=O)[C@H](Cc3cc(F)cc(F)c3)NC(=O)Nc3ccc(OC(F)(F)F)cc3)C(=O)N3CCC[C@H]3C(=O)N(C)[C@@H]([C@@H](C)O)C(=O)N[C@@H](C)C(=O)N2C1 [Compound 41, (S)-3-(3,5-difluorophenyl)-N-((2R,6S,9S,11aS,17S,18S,20aS)-9-((R)-1-hydroxyethyl)-2,6,10,18-tetramethyl-5,8,11,16,20-pentaoxohexadecahydro-1H,5H,16H-dipyrrolo[2,1-c:2′,1′-l][1]oxa[4,7,10,13]tetraazacyclohexadecin-17-yl)-2-(3-(4-(trifluoromethoxy)phenyl)ureido)propanamide] ({NH(4-OCF3-phenyl)-CO}-[Phe(3,5-F2)][aThr]P[NMeT]A[Pro(4R-Me)]; ester 2-C)	7.53 ± 0.2 µM	–	0.02 µM (≈ 0.0176 µg/mL)	–	–	0.1 µM (≈ 0.0882 µg/mL)	0.01 µM (≈ 0.00882 µg/mL)	0.01 µM (≈ 0.00882 µg/mL)	–
C[C@@H]1C[C@H]2C(=O)O[C@@H](C)[C@H](NC(=O)[C@H](Cc3cc(F)cc(F)c3)NC(=O)Nc3ccc(Cl)cc3F)C(=O)N3C[C@H](O)C[C@H]3C(=O)N3CCCC[C@H]3C(=O)N[C@@H](C)C(=O)N2C1 [Compound 329, (S)-2-(3-(4-chloro-2-fluorophenyl)ureido)-3-(3,5-difluorophenyl)-N-((2R,6S,8aS,14aS,16R,20S,21S,23aS)-16-hydroxy-2,6,21-trimethyl-5,8,14,19,23-pentaoxooctadecahydro-1H,5H,14H,19H-pyrido[2,1-i]dipyrrolo[2,1-c:2′,1′-l][1]oxa[4,7,10,13]tetraazacyclo-hexadecin-20-yl)propanamide] ({NH(4-Cl-2-F-phenyl)-CO}-[Phe(3,5-F2)][aThr][Hyp][Pip]A[Pro(4R-Me)]; ester 2-C)	7.32 ± 0.4 µM	–	0.078 µM (≈ 0.0673 µg/mL)	–	–	0.078 µM (≈ 0.0673 µg/mL)	0.039 µM (≈ 0.0336 µg/mL)	0.039 µM (≈ 0.0336 µg/mL)	–
C[C@H]1C[C@H]2C(=O)O[C@@H](C)[C@H](NC(=O)[C@H](Cc3cc(F)cc(F)c3)NC(=O)Nc3ccc(OC(F)(F)F)cc3)C(=O)N3CCC[C@H]3C(=O)N(C)[C@@H]([C@H](C)O)C(=O)N[C@@H](C)C(=O)N2C1 [Compound 203, (S)-3-(3,5-difluorophenyl)-N-((2S,6S,9S,11aS,17S,18S,20aS)-9-((S)-1-hydroxyethyl)-2,6,10,18-tetramethyl-5,8,11,16,20-pentaoxohexadecahydro-1H,5H,16H-dipyrrolo[2,1-c:2′,1′-l][1]oxa[4,7,10,13]tetraazacyclohexadecin-17-yl)-2-(3-(4-(trifluoromethoxy)phenyl)ureido)propanamide] ({NH(4-OCF3-phenyl)-CO}-[Phe(3,5-F2)][aThr]P[NMeaThr]A[Pro(4S-Me)]; ester 2-C)	–	–	0.098 µM (≈ 0.0864 µg/mL)	–	–	0.195 µM (≈ 0.172 µg/mL)	0.049 µM (≈ 0.0432 µg/mL)	0.098 µM (≈ 0.0864 µg/mL)	6.4 ± 0.5 µM

Source: US10457707B2, “Substituted urea depsipeptide analogs as activators of the CLPP endopeptidase” (priority 2015, dated 2019)
